In ChEMBL document CHEMBL4813950, “Comparing the efficacy and selectivity of Ck2 inhibitors. A phosphoproteomics approach” (Eur J Med Chem, 2021):
Activity calls are given as the source filed them. The calls are words filed in the database; no cut-off is given here.

Legend:
[1] = molecular target: Nucleolar protein 56 (Mus musculus) (UniProt Q9D6Z1); assay: Inhibition of Nop56 in mouse C2C12 cells assessed as reduction in phospho-sites occupancy at 4 uM after 5 hrs by SILAC based LC-MS/MS analysis relative to control; assay type: cell-based
[2] = molecular target: Serine/arginine repetitive matrix protein 1 (Mus musculus) (UniProt Q52KI8); assay: Inhibition of Srrm1 in mouse C2C12 cells assessed as reduction in phospho-sites occupancy at 4 uM after 5 hrs by SILAC based LC-MS/MS analysis relative to control; assay type: cell-based
[3] = molecular target: Protein IMPACT (Mus musculus) (UniProt O55091); assay: Inhibition of Impact in mouse C2C12 cells assessed as reduction in phospho-sites occupancy at 4 uM after 5 hrs by SILAC based LC-MS/MS analysis relative to control; assay type: cell-based
[4] = molecular target: LIM domain and actin-binding protein 1 (Mus musculus) (UniProt Q9ERG0); assay: Inhibition of Lima1 in mouse C2C12 cells assessed as reduction in phospho-sites occupancy at 4 uM after 5 hrs by SILAC based LC-MS/MS analysis relative to control; assay type: cell-based
[5] = molecular target: tRNA (guanine(26)-N(2))-dimethyltransferase (Mus musculus) (UniProt Q3TX08); assay: Inhibition of Trmt1 in mouse C2C12 cells assessed as reduction in phospho-sites occupancy at 4 uM after 5 hrs by SILAC based LC-MS/MS analysis relative to control; assay type: cell-based
[6] = molecular target: Eukaryotic translation initiation factor 5B (Mus musculus) (UniProt Q05D44); assay: Inhibition of eukaryotic translation initiation factor 5B in mouse C2C12 cells assessed as reduction in phospho-sites occupancy at 4 uM after 5 hrs by SILAC based LC-MS/MS analysis relative to control; assay type: cell-based
[7] = molecular target: DNA polymerase delta subunit 3 (Mus musculus) (UniProt Q9EQ28); assay: Inhibition of Pold3 in mouse C2C12 cells assessed as reduction in phospho-sites occupancy at 4 uM after 5 hrs by SILAC based LC-MS/MS analysis relative to control; assay type: cell-based
[8] = molecular target: Rho GTPase-activating protein 35 (Mus musculus) (UniProt Q91YM2); assay: Inhibition of Arhgap35 in mouse C2C12 cells assessed as reduction in phospho-sites occupancy at 4 uM after 5 hrs by SILAC based LC-MS/MS analysis relative to control; assay type: cell-based
[9] = molecular target: SWI/SNF-related matrix-associated actin-dependent regulator of chromatin subfamily A containing DEAD/H box 1 (Mus musculus) (UniProt Q04692); assay: Inhibition of Smarcad1 in mouse C2C12 cells assessed as reduction in phospho-sites occupancy at 4 uM after 5 hrs by SILAC based LC-MS/MS analysis relative to control; assay type: cell-based
[10] = molecular target: Zinc finger and BTB domain-containing protein 7A (Mus musculus) (UniProt O88939); assay: Inhibition of Zbtb7a in mouse C2C12 cells assessed as reduction in phospho-sites occupancy at 4 uM after 5 hrs by SILAC based LC-MS/MS analysis relative to control; assay type: cell-based
[11] = molecular target: Chaperone Ric-8A (Mus musculus) (UniProt Q3TIR3); assay: Inhibition of Ric8a in mouse C2C12 cells assessed as reduction in phospho-sites occupancy at 4 uM after 5 hrs by SILAC based LC-MS/MS analysis relative to control; assay type: cell-based
[12] = molecular target: WASH complex subunit 2 (Mus musculus) (UniProt Q6PGL7); assay: Inhibition of Washc2 in mouse C2C12 cells assessed as reduction in phospho-sites occupancy at 4 uM after 5 hrs by SILAC based LC-MS/MS analysis relative to control; assay type: cell-based
[13] = molecular target: Kinectin (Mus musculus) (UniProt Q61595); assay: Inhibition of Ktn1 in mouse C2C12 cells assessed as reduction in phospho-sites occupancy at 4 uM after 5 hrs by SILAC based LC-MS/MS analysis relative to control; assay type: cell-based
[14] = molecular target: T1, Casein kinase 2 (Mus musculus) (UniProt Q60737+P67871+O54833+Q8CH19); assay: Inhibition of CK2 in mouse C2C12 cells assessed as reduction in CK2 substrates phosphorylation at 1 to 4 uM by Western blot analysis; assay type: cell-based; conditions: dose 1-4 µM
[15] = molecular target: La-related protein 1 (Mus musculus) (UniProt Q6ZQ58); assay: Inhibition of Larp1 in mouse C2C12 cells assessed as reduction in phospho-sites occupancy at 4 uM after 5 hrs by SILAC based LC-MS/MS analysis relative to control; assay type: cell-based
[16] = molecular target: Host cell factor 1 (Mus musculus) (UniProt Q61191); assay: Inhibition of host cell factor 1 in mouse C2C12 cells assessed as reduction in phospho-sites occupancy at 4 uM after 5 hrs by SILAC based LC-MS/MS analysis relative to control
[17] = molecular target: Cyclin-dependent kinase 4 (Mus musculus) (UniProt P30285); assay: Inhibition of Cdk4 in mouse C2C12 cells assessed as reduction in phospho-sites occupancy at 4 uM after 5 hrs by SILAC based LC-MS/MS analysis relative to control; assay type: cell-based
[18] = molecular target: Acetyl-CoA carboxylase 1 (Mus musculus) (UniProt Q5SWU9); assay: Inhibition of Acetyl-CoA carboxylase 1 in mouse C2C12 cells assessed as reduction in phospho-sites occupancy at 4 uM after 5 hrs by SILAC based LC-MS/MS analysis relative to control; assay type: cell-based
[19] = molecular target: Tight junction protein 2 (Mus musculus) (UniProt Q9Z0U1); assay: Inhibition of Tjp2 in mouse C2C12 cells assessed as reduction in phospho-sites occupancy at 4 uM after 5 hrs by SILAC based LC-MS/MS analysis relative to control; assay type: cell-based
[20] = molecular target: T1, Casein kinase 2 (Mus musculus); assay: Inhibition of CK2 in mouse C2C12 cells assessed as reduction in Akt phosphorylation at S129 residues at 1 to 4 uM by Western blot analysis; assay type: cell-based; conditions: dose 1-4 µM
[21] = molecular target: EH domain-containing protein 2 (Mus musculus) (UniProt Q8BH64); assay: Inhibition of Ehd2 in mouse C2C12 cells assessed as reduction in phospho-sites occupancy at 4 uM after 5 hrs by SILAC based LC-MS/MS analysis relative to control; assay type: cell-based
[22] = molecular target: T1, Casein kinase 2 (Mus musculus); assay: Inhibition of CK2 in mouse C2C12 cells assessed as reduction in CDC37 phosphorylation at S13 residues at 1 to 4 uM by Western blot analysis; assay type: cell-based; conditions: dose 1-4 µM
[23] = molecular target: Unconventional myosin-XVIIIa (Mus musculus) (UniProt Q9JMH9); assay: Inhibition of Unconventional myosin-18a in mouse C2C12 cells assessed as reduction in phospho-sites occupancy at 4 uM after 5 hrs by SILAC based LC-MS/MS analysis relative to control; assay type: cell-based
[24] = molecular target: DNA topoisomerase 2-beta (Mus musculus) (UniProt Q64511); assay: Inhibition of DNA topoisomerase 2-beta in mouse C2C12 cells assessed as reduction in phospho-sites occupancy at 4 uM after 5 hrs by SILAC based LC-MS/MS analysis relative to control; assay type: cell-based
[25] = molecular target: Small ubiquitin-related modifier 1 (Mus musculus) (UniProt P63166); assay: Inhibition of Sumo1 in mouse C2C12 cells assessed as reduction in phospho-sites occupancy at 4 uM after 5 hrs by SILAC based LC-MS/MS analysis relative to control; assay type: cell-based

## COc1cc(/C=N/n2c(SC)nnc2-c2ccccc2)c(Br)cc1O
[1]
  fold change (FC): 1.5
[2]
  fold change (FC): 2.36
[3]
  fold change (FC): 3.44
[4]
  fold change (FC): 2.39
[5]
  fold change (FC): 1.86
[6]
  fold change (FC): 1.55
[7]
  fold change (FC): 1.66
[8]
  fold change (FC): 2.58
[9]
  fold change (FC): 1.64
[10]
  fold change (FC): 1.89
[11]
  fold change (FC): 1.93
[12]
  fold change (FC): 4.17
[13]
  fold change (FC): 1.98
[14]
  inhibition: Active
[15]
  fold change (FC): 3.25
[16]
  fold change (FC): 1.56
[17]
  fold change (FC): 3.97
[18]
  fold change (FC): 2.73
[19]
  fold change (FC): 3.31
[20]
  inhibition: Active
[21]
  fold change (FC): 2.18
[22]
  inhibition: Active
[23]
  fold change (FC): 5.23
[24]
  fold change (FC): 1.6
[25]
  fold change (FC): 1.75
